Measurements published in patent US20070191325A1, “Methods for altering insulin secretion” (priority 2004, published 2007).

Key:
[1] = system: SGK1 transcript levels in INS-1 cells; assay: Real time PCR of SGK1 mRNA in INS-1 cells; assay type: cell-based, rat; conditions: with 100 nM dexamethasone
[2] = system: SGK1 protein in INS-1 cells; assay: Western blotting of SGK1 protein in INS-1 cells; assay type: cell-based, rat
Experimental: INS-1 cells were treated with 100 nM dexamethasone or vehicle (DMSO) in culture for the indicated periods of time.
Plots were incubated with antibodies against SGK1 (New England Biolabs, Beverly, Mass., USA). Bound antibody was visualized using a second antibody coupled to horse radish peroxidase.
Thereafter, culture medium was removed and cells were lysed in a solution containing 300 mM NaCl, 20 mM Tris HCl, pH 7.4, 1% (v/v) Triton X-100, 1% Sodiumdeoxycholate, 0.1% SDS, 2.5 mM EDTA, 10 μg/ml Pepstatin A, 10 μg/ml Aprotinin and 0.1 mM PMSF. Total cellular protein, 50 μg, quantified by Coomassie Blue G staining (Bradford dye assay, Biorad Laboratories GmbH, Munich, Germany) was subjected to SDS-PAGE (1%), and plotted onto a nitrocellulose membrane (Schleicher and Schuell, Dassel, Germany). Plots were incubated with antibodies against SGK1 (New England Biolabs, Beverly, Mass., USA). Bound antibody was visualized using a second antibody coupled to horse radish peroxidase.

[3] = target: nuclear glucocorticoid receptor (Mus musculus, UniProt P06537); conditions: Lambillotte et al., 1997; cited from earlier work
Kv1.5 mRNA in INS cells = assay: Real time PCR of Kv1.5 mRNA in INS-1 cells; assay type: cell-based, rat; conditions: 100 nM dexamethasone, within 4 hours
INS-1 cells = assay: Glucose-induced insulin secretion of INS-1 cells; assay type: cell-based, rat; conditions: INS-1 cells pretreated with 100 nM dexamethasone
Experimental: Prior to the experiment INS-1 cells were treated in culture with dexamethasone, 100 nM, for 4 h. Cells were washed twice and preincubated in HEPES buffered salt solution containing (in mmol/l): 140 NaCl, 5.6 KCl, 1.2 MgCl2, 2.6 CaCl2, 0.5 glucose, 10 HEPES and 5 g/l bovine serum albumin, pH 7.4 at 37° C. Thereafter cells were incubated for 30 min at 37° C. in fresh solution containing the test substances at the appropriate concentrations. Insulin was measured by radioimmunoassay using rat insulin antiserum (Linco, Biotrend Chemikalien GmbH, Cologne, Germany), I^125-insulin (CIS Diagnostik GmbH, Dreieich, Germany) and rat insulin (Novo Nordisk, Mainz, Germany) as standard or by an Insulin Elisa kit (Mercodia, Uppsala, Sweden).
INS-1 cells (kindly provided by CB Wollheim, University of Geneva, Switzerland) derived from a rat insulinoma were cultured in HEPES-buffered RPMI 1640 supplemented with 10% fetal calf serum (Biochrom, Berlin, Germany), 1 mmol/l HEPES, 1 mmol/l Na pyruvate, 10 μmol/l β-mercaptoethanol (Sigma, Munich, Germany) and antibiotics as described elsewhere (Abel et al., 1996; Asfari et al., 1992). Cells were seeded at a cell density of 2.0-2.5 10^5 cells/ml in 24-well culture plates and cultured for 2 days prior to the experiment. Cells were washed twice with HEPES buffered salt solution containing (in mmol/l): 140 NaCl, 5.6 KCl, 1.2 MgCl2, 2.6 CaCl2, 0.5 glucose, 10 HEPES and 5 g/l bovine serum albumin, pH 7.4. and preincubated for 30 min at 37° C. […] Incubations were stopped on ice, medium removed and frozen at −20° C. until insulin released into the supernatant was measured by radioimmunoassay using rat insulin antiserum (Linco, Biotrend Chemikalien GmbH, Cologne, Germany), I^125-insulin (CIS Diagnostik GmbH, Dreieich, Germany) and rat insulin (Novo Nordisk, Mainz, Germany) as standard or an insulin Elisa kit (Mercodia, Uppsala, Sweden). Insulin content was measured after extraction with acid ethanol (1.5 (v/v) % HCl/75% ethanol) over night at 4° C.

[4] = system: voltage gated outward current (Kv channels) in INS-1 cells; assay: Patch clamp measurement of whole cell outward current in INS-1 cells; assay type: cell-based, rat; conditions: for 4-AP sensitive current: INS-1 cells after 4 hours 100 nM dexamethasone; for inhibition of outward current: untreated INS-1 cells
Experimental: Cells were treated prior to the experiment with 100 nm dexamethasone for 4 h. (2A) whole cell current was induced by 200 ms voltage pulses increasing by 10 mv steps from −70 mv to +50 mv. (2B) Sensitivity to 4-ap (0.1 and 1 mm) and tea (1 and 10 mm) was tested in cells before (black columns) and after dexamethasone treatment (white columns). Voltage pulses of 200 ms duration from −70 to 50 mv were applied. Shown are means±sem for the indicated number of experiments. * denotes significance (p<0.05) to current in control, non treated cells at the same inhibitor concentration. Ins-1 cells were cultured as described before (Abel et al., 1996; Asfari et al., 1992). The external patch clamp solution contained (in mmol/l): 140 NaCl, 5.6 KCl, 1.2 MgCl2, 2.6 CaCl2, 0.5 glucose and 10 HEPES, PH 7.4. The internal solution contained (in mmol/l): 30 KCL, 95 K^+-gluconate, 1 MgCl2, 1.2 NaH2PO4, 4.8 Na2HPO4, 5 Na2ATP, 1 Na3GTP, 5 mmol/l EGTA, PH 7.2. An Epc9 Patch Clamp Amplifier (Heka Electronic, Lambrecht, Germany) Was Used For Current Measurements.
INS-1 cells were cultured for 2-4 days on glass cover slips coated with poly-L-ornithine (10 mg/l Sigma, Munich, Germany) at appropriate cell densities (1.2×10^6 cells/ml). The cover slips were mounted in a bath chamber on the stage of an inverted microscope (IM, Zeiss, Jena, Germany). The cells were kept at room temperature or at 34° C. as indicated for each experiment and superfused with a solution containing (in mmol/l): 140 NaCl, 5.6 KCl, 1.2 MgCl2, 2.6 CaCl2, 0.5 glucose and 10 HEPES, pH 7.4. The patch clamp pipettes (Clark-Medical, Reading, Great Britain) with a resistance of 4-6 MΩ were pulled using a DMZ-universal puller (Zeitz, Augsburg, Germany). They were filled with an internal solution containing (in mmol/l): 30 KCl, 95 K^+-gluconate, 1 MgCl2, 1.2 NaH2PO4, 4.8 Na2HPO4, 5 Na2ATP, 1 Na3GTP, 5 mmol/l EGTA, pH 7.2. An EPC9 patch clamp amplifier (Heka Electronic, Lambrecht, Germany) was used for current measurements. Only stable current measurements, i.e. when currents reached at least 90% of control current after removal of the respective inhibitory drug, were used for analysis.

Sequence of nuclear glucocorticoid receptor (P06537 whole entry): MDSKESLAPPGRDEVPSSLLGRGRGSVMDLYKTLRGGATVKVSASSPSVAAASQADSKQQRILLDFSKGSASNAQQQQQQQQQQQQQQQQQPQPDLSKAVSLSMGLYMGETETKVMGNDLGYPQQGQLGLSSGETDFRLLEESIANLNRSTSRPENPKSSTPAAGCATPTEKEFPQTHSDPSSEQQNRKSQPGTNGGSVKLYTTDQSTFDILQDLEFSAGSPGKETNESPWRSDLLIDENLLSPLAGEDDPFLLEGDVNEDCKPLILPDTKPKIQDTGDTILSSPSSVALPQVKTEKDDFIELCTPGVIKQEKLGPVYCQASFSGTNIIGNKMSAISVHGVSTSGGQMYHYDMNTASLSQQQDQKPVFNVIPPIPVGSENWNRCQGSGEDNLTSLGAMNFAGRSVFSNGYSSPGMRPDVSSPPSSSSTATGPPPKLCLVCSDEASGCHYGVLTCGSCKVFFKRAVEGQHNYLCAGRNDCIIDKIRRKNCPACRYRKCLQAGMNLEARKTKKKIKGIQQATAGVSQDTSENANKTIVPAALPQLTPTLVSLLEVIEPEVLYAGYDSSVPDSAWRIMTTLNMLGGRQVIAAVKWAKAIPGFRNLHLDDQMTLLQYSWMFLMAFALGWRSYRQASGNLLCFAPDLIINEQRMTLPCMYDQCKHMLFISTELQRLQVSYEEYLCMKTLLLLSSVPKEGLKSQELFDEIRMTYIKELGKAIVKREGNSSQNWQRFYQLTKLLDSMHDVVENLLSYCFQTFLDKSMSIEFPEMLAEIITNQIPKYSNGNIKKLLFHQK

Compound: CC#C[C@]1(O)CC[C@H]2[C@@H]3CCC4=CC(=O)CCC4=C3[C@@H](c3ccc(N(C)C)cc3)C[C@@]21C [RU486, mifepristone]
- effect on dexamethasone-induced increase of SGK1 mRNA transcript levels [1]: completely abrogated
- effect on dexamethasone-induced SGK1 expression ([2]; RU486 at 1 μmol/l, with 100 nM dexamethasone): completely inhibited
- effect on dexamethasone-induced increase in SGK1 protein abundance ([2]; with 100 nM dexamethasone): fully reversed
- effect on dexamethasone-induced inhibition of insulin secretion [3]: completely abolished

Compound: C[C@@H]1C[C@H]2[C@@H]3CCC4=CC(=O)C=C[C@]4(C)[C@@]3(F)[C@@H](O)C[C@]2(C)[C@@]1(O)C(=O)CO [dexamethasone]
- time until SGK1 protein / expression appears ([2]; 100 nM dexamethasone): ≤ 2 h
- increase of abundance of Kv1.5 mRNA (factor) (Kv1.5 mRNA in INS cells): approx. 10
- inhibition at 0.1 µM (INS-1 cells; Rattus norvegicus, INS1): 62%

Compound: CC[N+](CC)(CC)CC [TEA]
- effect on dexamethasone-induced inhibition of insulin secretion (INS-1 cells): reversed

Compound: Nc1ccncc1 [4-AP]
- 4-AP sensitive current ([4]; 0.1 mM 4-AP): 28%
- 4-AP sensitive current ([4]; 1 mM 4-AP): 40%
- inhibition of outward current ([4]; 0.1 mM 4-AP): 10%
- inhibition of outward current ([4]; 1 mM 4-AP): 28%
- effect on dexamethasone-induced inhibition of insulin secretion (INS-1 cells): reversed
